A short description of this data set: gradient 5% acetonitrile 3 min, to 50% in 2 min, to 85% in 15 min, held 3 min, 100 µL/min. Particulars: column: Zorbax Extend-C18 2.1 x 50 mm; eluents: water / acetonitrile, 0.1% formic acid. An outline of the steps: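 Pure standards were run in mixtures of ~100 molecules by HPLC coupled to a quadrupole time-of-flight mass spectrometer. The column was a Zorbax Extend-C18 (2.1 × 50 mm, 1.8 μm) at 100 μL/min, with water and acetonitrile each containing 0.1% formic acid, in positive and negative ionization mode. Dead and dwell volumes were 40 μL and 900 μL. Retention time was taken from computationally picked adduct peaks, each manually inspected, with data collected over 3 months.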
Take `Cc1nn(-c2nc(-c3ccc(F)cc3)cs2)c(C)c1CC(=O)N1CCCC1`: the RP-LC retention time came out at 1030 s.

In turn, `CCc1noc(NC(C)=O)c1-c1ccc(C)c(S(=O)(=O)N2CCc3ccccc3C2)c1` returned an RP-LC retention time of 956 s.

Molecule `CCCN1CCN(C(=O)CN2C(=O)CCCc3cc(S(=O)(=O)N4CCOCC4)ccc32)CC1` displayed an RP-LC retention time of 590 s.

Regarding `CCc1cc(=O)n(Cc2ncc(C)c(OC)c2C)c(N2CCCC2)n1`, the RP-LC retention time came out at 554 s.

`CCOC(=O)C(C)(C)Sc1nnc(N2CCN(c3ccccc3)CC2)s1` registered an RP-LC retention time of 997 s.

The molecule `O=C(Cn1ccn2nc(-c3ccc(F)cc3)c(CO)c2c1=O)Nc1ccc2c(c1)CCC2` registered an RP-LC retention time of 908 s.

On to `COc1ccccc1N1CCN(c2cc(SCC(=O)NCc3ccccc3)ncn2)CC1`, for which the RP-LC retention time was found to be 823 s.

Take `CCn1ccc2sc(C)c(C(=O)NCc3ccc(C)cc3)c2c1=O`: the RP-LC retention time amounted to 850 s.

Molecule `CCS(=O)(=O)N1CC(F)(F)C[C@H]1c1nc(-c2cccnc2)no1` registered an RP-LC retention time of 743 s.

As for `CCn1c(=O)c(NCc2cc(F)ccc2F)nc2ccncc21`, the RP-LC retention time amounted to 568 s.

`CCCN(CC1CCOC1)C(=O)Nc1ccc(C)c(Cl)c1` (centres undefined): the RP-LC retention time was 959 s.

`COc1ccc(NC(=O)C2CC(=O)N(c3ccc4oc(C)nc4c3)C2)cc1F` (centres undefined) had an RP-LC retention time of 733 s.

For `CC(C)n1cc(C#N)c(N)n1`, the RP-LC retention time is 658 s.

In turn, `CCc1nc2c(=O)n(CC(=O)N3CCN(c4ccc(Cl)cc4)CC3)nc(C)c2s1` displayed an RP-LC retention time of 854 s.

In turn, `COc1ccc(OC)c(-c2cn3ccn(-c4ccc(Br)cc4)c(=O)c3n2)c1` showed an RP-LC retention time of 912 s.

Turning to `Cc1ccc(NC(=O)N2CCc3c(c(-c4nnc(-c5ccc(F)cc5)o4)nn3C)C2)c(Cl)c1`, the RP-LC retention time amounted to 944 s.

`CCc1ccc(CNC(=O)C2CCCN(c3nc4c(s3)c(C)nn4-c3ccccc3)C2)cc1` (centres undefined) registered an RP-LC retention time of 1230 s.

Molecule `Cc1nc2cc(-c3noc(-c4cc(Cl)ccc4Cl)n3)ccc2o1` had an RP-LC retention time of 1290 s.

Consider `COc1ccc(C2C(C(=O)N3CCOCC3)=C(C)NC3=C2C(=O)CC(C)(C)C3)c(OC)c1` (centres undefined), for which the RP-LC retention time was determined as 973 s.

The molecule `O=C(Nc1ccccc1)C1CCCN(C(=O)C2Sc3ccccc3NC2=O)C1` (centres undefined) registered an RP-LC retention time of 772 s.

On to `Cc1cccc(CN2N=C(C(=O)N3CCCCC3)S(=O)(=O)c3ccccc32)c1`, for which the RP-LC retention time stood at 1010 s.

For the molecule `CC1=C(c2ccccc2)S(=O)(=O)N=C1N1CCC(NC(=O)C2CCC2)CC1`, the RP-LC retention time stood at 753 s.

Consider `CCOC(=O)CNC(=O)CSc1nnc(NC(=O)c2nc3ccccc3s2)s1`, for which the RP-LC retention time came to 736 s.

The molecule `CCOC(=O)c1ccc(NS(=O)(=O)c2cc3n(c2)CCN(CC)C3=O)cc1` gave an RP-LC retention time of 744 s.

Turning to `O=C(NCC1CCOCC1)c1ccccc1Br`, the RP-LC retention time came out at 671 s.

For the molecule `COc1ccc(OC)c(C(O)CN2CCC(c3nc(C)no3)CC2)c1` (centres undefined), the RP-LC retention time came out at 574 s.

Regarding `Cc1cccc(Cn2c(=O)n(CCNC(=O)c3cnccn3)c3ncccc32)c1`, the RP-LC retention time came out at 722 s.

The molecule `Cc1ccc(NC(=O)N2CCCC2c2nc(-c3ccccc3C)no2)c(Cl)c1` (centres undefined) showed an RP-LC retention time of 610 s.

As for `COc1ccc(OC)c(S(=O)(=O)N2CCC(Cc3ncc(C)n3C3CC3)C2)c1` (centres undefined), the RP-LC retention time was determined as 656 s.

`Cc1nc(Cn2cccc2C(=O)Nc2ccc(C(C)C)cc2)no1` displayed an RP-LC retention time of 982 s.

In turn, `Cc1ccc(-c2cc(C(=O)N3CCC(NC(=O)c4cccs4)CC3)[nH]n2)c(C)c1` showed an RP-LC retention time of 763 s.

Regarding `CCc1ccc2nc(Nc3ncc4c(n3)CC(c3cccc(Cl)c3)CC4=O)nc(C)c2c1` (centres undefined), the RP-LC retention time was 896 s.

In the case of `CN(CC#N)C(=O)c1ccc2c(c1)CCN2C(=O)C1CC1`, the RP-LC retention time was 680 s.

In turn, `COc1cc(OC)cc(N2C=C(C#N)S(=O)(=O)c3c(F)cccc32)c1` had an RP-LC retention time of 906 s.

With `Cc1cc(C)cc(NC(=O)N2CC(c3nc(C)no3)C3(CCOCC3)C2)c1` (centres undefined), the RP-LC retention time was determined as 706 s.

`CCOC(=O)CC1(NC(=O)N2CCc3c(c(C(=O)N4CCCC4)nn3C)C2)CCCCC1` yielded an RP-LC retention time of 764 s.

Regarding `O=C(Cn1c(=O)c2nncn2c2ncccc21)N1CCN(c2cccc(Cl)c2)CC1`, the RP-LC retention time came out at 750 s.

As for `O=S(=O)(CCc1noc(-c2cccc(F)c2)n1)c1ccccc1`, the RP-LC retention time amounted to 904 s.

The molecule `CCSc1ccccc1C(=O)NC(C)Cc1ccco1` (centres undefined) had an RP-LC retention time of 841 s.

Take `O=C(Nc1ccccc1F)NC1CCN(C(=O)N2C[C@H]3C[C@H](C2)[C@H]2CCCC(=O)N2C3)CC1`: the RP-LC retention time was 677 s.

For `CNC(=O)N1CCOc2cc(C)ccc21`, the RP-LC retention time turned out to be 713 s.

On to `COc1ccc(NC(=O)Cn2c(C)cc(-c3nnc(-c4ccc(F)cc4)o3)c2C)cc1`, for which the RP-LC retention time came out at 952 s.

Consider `CCc1nc(-c2ccc(-c3noc(CNC(=O)c4ccccc4)n3)cc2)cs1`, for which the RP-LC retention time is 963 s.

In turn, `C[C@]12CC[C@H](O)CC1=CCC1C2CC[C@]2(C)C(n3cnc4ccccc43)=CCC12` (some centres undefined) yielded an RP-LC retention time of 948 s.

`CCOC(=O)c1sc(NC(=O)c2cn(CC)c3nc(C)ccc3c2=O)nc1C`: the RP-LC retention time turned out to be 1040 s.

`c1ccc(CNc2nc(-c3ccncc3)nc3c2CCC3)nc1` gave an RP-LC retention time of 555 s.

As for `COC(=O)C1=C(C)NC(=O)NC1c1ccc(Cl)c(Cl)c1` (centres undefined), the RP-LC retention time stood at 726 s.

`O=C(CCc1nnn2c1CN(C(=O)Nc1cccc(F)c1)CC2)NC1CC1` registered an RP-LC retention time of 664 s.

Turning to `CCN1C(=O)c2cc(C(=O)NCc3ccc(F)cc3)nn2CC1(C)C(=O)NC1CCCC1` (centres undefined), the RP-LC retention time was determined as 734 s.

As to `O=C(C1CCCN(c2nc3ccccc3n3cccc23)C1)N1CCN(c2ccccc2)CC1` (centres undefined), the RP-LC retention time came to 793 s.

The molecule `COc1ccc(NC(=O)C2CCN(S(=O)(=O)c3ccc4c(c3)NC(=O)CO4)CC2)cc1OC` yielded an RP-LC retention time of 715 s.

Molecule `COc1ccccc1OCCC1CCN(S(=O)(=O)c2ccc3c(c2)C(C)(C)C(=O)N3)C1` (centres undefined) came in with an RP-LC retention time of 902 s.

`O=C(CSc1ncccn1)Nc1nc(-c2ccccc2)c(-c2ccccc2)o1` came in with an RP-LC retention time of 905 s.

For `CCC(=O)N1CCc2cc(S(=O)(=O)CCC(=O)N3CC(C)CC(C)C3)ccc21` (centres undefined), the RP-LC retention time turned out to be 871 s.

Regarding `Cc1ccc(NC(=O)Cn2nc3nc(N4CCOCC4)ccn3c2=O)cc1F`, the RP-LC retention time turned out to be 675 s.

`Cc1cc(C(N)=O)c(C)n1Cc1ccc(F)cc1` had an RP-LC retention time of 752 s.

In turn, `CCOC(=O)CC(NC(=O)N1CCC2(CC1)NC(=O)c1ccccc1O2)c1ccccc1` (centres undefined) gave an RP-LC retention time of 782 s.

Regarding `CCOc1ccc(NS(=O)(=O)c2ccc3c(c2)C(=O)N(C)c2ncccc2O3)cc1`, the RP-LC retention time came out at 907 s.

With `Cc1ccc2c(C(=O)N3CCCCC3)cc(NC(=O)C3CCC3)cc2n1`, the RP-LC retention time was found to be 632 s.

`Brc1cccc(-c2nnc(Cc3nc(-c4ccc5c(c4)OCO5)no3)o2)c1` showed an RP-LC retention time of 1060 s.

`CCC(C(=O)N1CCN(c2ccc3nnc(-c4ccco4)n3n2)CC1)c1ccccc1` (centres undefined): the RP-LC retention time was 727 s.

`O=C(Cn1cc(S(=O)(=O)Cc2ccccc2F)c2ccccc21)NCC1CCCO1` (centres undefined) showed an RP-LC retention time of 806 s.

The molecule `Cc1ccc(NS(=O)(=O)c2cc3c(s2)CCN(C(=O)C2CC2)C3)cc1` had an RP-LC retention time of 849 s.

For `COC(=O)c1ccc2c(=O)n(-c3cc(OC)cc(OC)c3)c(N3CCCC3)nc2c1`, the RP-LC retention time came out at 920 s.

The molecule `COC(=O)C1=CN(C2CC2)c2cc(N3CCCCCC3)c(F)cc2S1(=O)=O` registered an RP-LC retention time of 980 s.

The molecule `CN(C)c1ccc(CNC(=O)C2CCN(c3cncnc3N3CCOCC3)CC2)cc1` gave an RP-LC retention time of 545 s.

In turn, `COCCN1C(=O)c2ccccc2C(C(=O)NCc2ccccc2OC)C1c1ccc(F)cc1` (centres undefined) had an RP-LC retention time of 924 s.

For the molecule `O=C(Nc1ccc2c(c1)N(C(=O)c1cccs1)CCC2)c1ccccc1Br`, the RP-LC retention time was 850 s.

As to `CCc1nnc2ccc(S(=O)(=O)Nc3cccc(F)c3)cn12`, the RP-LC retention time was 714 s.

`CCc1onc(C)c1C1CCCN1C(=O)Cc1ccc(OC)c(OC)c1` (centres undefined) yielded an RP-LC retention time of 718 s.

With `COc1ccc(-c2noc(CN3N=NC4C(=O)N(c5ccc6c(c5)CCC6)C(=O)C43)n2)cc1OC` (centres undefined), the RP-LC retention time was 949 s.

In turn, `Cc1ccc(Cl)cc1NC(=O)CN1CCN(c2ccc(F)cc2)CC1` displayed an RP-LC retention time of 658 s.

Regarding `COc1ccc(-c2nnc(N3CCC(C(=O)N4CCC5(CC4)OCCO5)CC3)o2)cc1`, the RP-LC retention time came out at 704 s.

On to `CC(=O)N1c2ccc(S(=O)(=O)N3CCCC3)cc2CC1C(=O)Nc1c(C)cc(C)cc1C` (centres undefined), for which the RP-LC retention time is 876 s.

Molecule `CC(C)CCNC(=O)C1(C)Cn2nc(C(=O)NCc3ccccc3Cl)cc2C(=O)N1C` (centres undefined) displayed an RP-LC retention time of 814 s.

On to `O=C(NCc1csc(C2CCN(C(=O)c3cc(F)ccc3Cl)CC2)n1)C1CCC1`, for which the RP-LC retention time was 713 s.

`Cc1nnc(N2CCCC(C(=O)N(C)Cc3ccccc3)C2)c2nn(-c3ccc(Cl)cc3)c(C)c12` (centres undefined) yielded an RP-LC retention time of 795 s.

`COc1ccccc1CN1CCc2nc(N3CCN(c4ccccc4F)CC3)ncc2C1` yielded an RP-LC retention time of 808 s.

`O=C(/C=C/C(=O)N1CCc2ccccc2C1)N1CCc2ccccc2C1` displayed an RP-LC retention time of 888 s.

The values are drawn from the METLIN SMRT retention time set (Domingo-Almenara et al. 2019).
